Legend:
FLT3 = molecular target: T1, FLT3 (Homo sapiens, UniProt P36888); experiment: Binding constant (Kd) measurement, phage-displayed kinase competition binding assay; details: for Binding Assay: FLT3(JMminus): FLT3(JMminus) construct; for Binding Assay: FLT3(DKIN) / Kd: FLT3(DKIN) construct
T1 construct: FLT3(DKIN); made in house
T1 sequence (P36888 610-943 limits assumed): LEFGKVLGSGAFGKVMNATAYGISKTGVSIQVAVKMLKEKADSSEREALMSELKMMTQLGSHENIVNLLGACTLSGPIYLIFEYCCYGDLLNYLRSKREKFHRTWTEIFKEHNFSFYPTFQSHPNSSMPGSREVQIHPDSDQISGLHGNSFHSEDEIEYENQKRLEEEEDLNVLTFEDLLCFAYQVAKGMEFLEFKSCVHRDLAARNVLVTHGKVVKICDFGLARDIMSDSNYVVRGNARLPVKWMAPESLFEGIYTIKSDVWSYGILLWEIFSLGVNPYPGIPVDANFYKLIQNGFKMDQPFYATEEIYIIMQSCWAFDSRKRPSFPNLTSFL
From the text: Binding Constant (Kd) Measurements for Small-Molecule-Kinase Interactions
The term “ND” represents non-determined values.

MV4,11 cells = experiment: FLT3 assay using MV4,11 cells (cellular proliferation, MTS); type: cell-based, human; details: cell assay code CS0001; for IC50: Homo sapiens, MV4-11
Description: The ability of FLT3 kinase inhibitors to inhibit cellular proliferation was also examined. MV4:11 was a cell line derived from a patient with acute myelogenous leukemia.
FLT3 Assay Using MV4,11 Cells
MV4,11 cells were grown in an incubator @ 37° C. in 5% CO2 in Medium 2 (RPMI, 10% FBS, 4 mM glutamine, Penn/Strep). The cells were counted daily and the cell density was kept between 1e5 and 8e5 cells/ml.
Day One: Enough cells were harvested for experiments to be conducted in 50 ml conical tubes. The harvested cells were spun at 500 g for 5 min at 4° C., the supernatant was then aspirated and the cells were resuspended in the starting volume of 1×PBS. The cells were again spun at 500 g for 5 min at 4° C. and the supernatant again aspirated. The cells were then resuspended in medium 3 (DMEM w/ glut, 10% FBS, Penn/Strep) to a density of 4e5 cells/ml and incubated (37° C. in 5% CO2 O/N.
Day Two: The cells were counted and enough medium 3 was added to decrease density to 2e5 cells/ml. 50 ul (10,000 cells) was aliquoted into each well of a 96 well optical plate using multichannel pipetman. The compound plate was then set up by aliquoting 3 μl of negative control (DMSO) into column 1 of a 96 well 300 ul polypropylene plate, aliquoting 3 μt of positive control (10 mM AB20121) into column 12 of plate, and aliquoting 3 μl of appropriate compounds from serial dilutions into columns 2-11. To each well, 150 μl of Medium 3 was added and 50 μl of compound/medium mixture from compound plate into rows of optical plate in duplicate. The cells were then incubated @ 37° C. in 5% CO2 for 3 days.
Day Five: MTS was thawed in a H2O bath. 20 μl of MTS was added to each well of optical plate and the cells were incubated (37° C. in 5% CO2 for 2 hours. The plate was then placed on a plate shaker for 30 seconds on high speed.

CS0002 = experiment: Cell Assay: CS0002; type: cell-based; details: cell assay code CS0002

SMILES | Binding Assay: FLT3(JMminus) (FLT3) | Cell Assay: CS0001:IC50 (MV4,11 cells) | Binding Assay: FLT3(DKIN) (FLT3) | further results
CC(C)(C)c1cnc(CSc2cnc(NC(=O)Nc3ccon3)s2)o1 | + + + | + + + | – | Cell Assay: CS0002:IC50 (CS0002): + +
CC(C)(C)c1cc(NC(=O)Nc2ccc(C(=O)/C=C/c3ccncc3)cc2)no1 | + + + + | + + + | – | IC50 (CS0002): > 10 µM
CC(C)(C)c1cc(NC(=O)Nc2ccc([N+](=O)[O-])cc2)no1 [Compound A21] | + + + | + + + | – | Cell Assay: CS0002:IC50 (CS0002): + +
CC(C)(C)c1cc(NC(=O)Nc2ccc3c(c2)OCO3)no1 [Compound A56] | + + + | + + + | – | IC50 (CS0002): > 10 µM
CC(C)(C)c1cc(NC(=O)Nc2ccc(N3C(=O)c4ccccc4C3=O)cc2)no1 [Compound A57] | + + + | + + + + | – | IC50 (CS0002): > 10 µM
CC(C)(C)c1cc(NC(=O)Nc2ccc(OCc3ccccc3)cc2)on1 [Compound G30] | – | + + + + | + + + + | Cell Assay: CS0002:IC50 (CS0002): + +
CC(C)(C)c1cc(NC(=O)Nc2ccc(NC(=O)c3cc([N+](=O)[O-])ccn3)cc2)no1 [Compound N7] | – | – | + + + + | IC50 (CS0002): > 10 µM
CC(C)(C)c1cc(NC(=O)Nc2ccc(NC(=O)c3cc4cc(Br)ccc4s3)cc2)no1 [Compound N17] | – | + + + + | + + + + | Cell Assay: CS0002:IC50 (CS0002): + +
CC(C)(C)c1cc(NC(=O)Nc2ccc(NC(=O)c3ccccc3Cl)cc2)no1 [Compound N23] | – | + + + + | + + + + | Cell Assay: CS0002:IC50 (CS0002): + +
CCc1ccc(C(=O)Nc2ccc(NC(=O)Nc3cc(C(C)(C)C)on3)cc2)cc1 [Compound N32] | – | + + + | + + + + | IC50 (CS0002): > 10 µM
COc1cc(OC)nc(Sc2ccccc2C(=O)Nc2ccc(NC(=O)Nc3cc(C(C)(C)C)on3)cc2)n1 [Compound N47] | – | + + + | + + + + | Cell Assay: CS0002:IC50 (CS0002): + + +
CC(C)(C)c1cc(NC(=O)Nc2ccc(NC(=O)c3cccc4nc5cc(O)cc(O)c5cc34)cc2)no1 [Compound N139] | – | + + + | + + + | –
CC(C)(C)c1cc(NC(=O)Nc2ccc(NC(=O)c3ccnc4ccccc34)cc2)no1 [Compound N141] | – | + + + | + + + + | –
CC(C)(C)c1cc(NC(=O)Nc2ccc(NC(=O)c3ccc4cccnc4n3)cc2)no1 [Compound N144] | – | + + + | + + + + | –
Cc1ncccc1C(=O)Nc1ccc(NC(=O)Nc2cc(C(C)(C)C)on2)cc1 [Compound N145] | – | + + + | + + + + | –
CC(C)(C)c1cc(NC(=O)Nc2ccc(NC(=O)c3cnc4cc(C(F)(F)F)ccc4c3O)cc2)no1 [Compound N146] | – | + + + | + + + | –
CC(C)(C)c1cc(NC(=O)Nc2ccc(NC(=O)c3c4ccccc4nc4ccccc34)cc2)no1 [Compound N148] | – | + + | + + + | –
CC(C)(C)c1cc(NC(=O)Nc2ccc(NC(=O)c3cnc4ccccc4n3)cc2)no1 [Compound N149] | – | + + | + + + | –
CC(C)(C)c1cc(NC(=O)Nc2ccc(NC(=O)C3CCNCC3)cc2)no1 [Compound N150] | – | – | + + + | IC50 (MV4,11 cells): > 10 µM
CC(C)(C)c1cc(NC(=O)Nc2ccc(C(=O)Nc3ccc(F)cc3F)cc2)no1 [Compound N153] | – | + + + | + + + + | –
CC(C)(C)c1cc(NC(=O)Nc2ccc(C(=O)Nc3ccc(Cl)cc3)cc2)no1 [Compound N156] | – | + + + | + + + + | –
Cc1cc(NC(=O)c2cn3nc(Cl)ccc3n2)ccc1NC(=O)Nc1cc(C(C)(C)C)on1 [Compound N169] | + + + | + + + | – | –

SMILES | Binding Assay: FLT3(JMminus) (FLT3) | Cell Assay: CS0001:IC50 (MV4,11 cells) | Binding Assay: FLT3(DKIN) (FLT3) | further results
Cc1cc(NC(=O)[C@](C)(O)CSc2ccc(F)cc2)ccc1NC(=O)Nc1cc(C(C)(C)C)on1 [Compound N170] | + + + + | + + + | – | –
COc1cc(NC(=O)c2cn3nc(Cl)ccc3n2)ccc1NC(=O)Nc1cc(C(C)(C)C)on1 [Compound N171] | + + | + + + | – | –
COc1cc(NC(=O)CCC(=O)N2CCNC(=O)CC2)ccc1NC(=O)Nc1cc(C(C)(C)C)on1 [Compound N172] | + + + | + + | – | –
CC(C)(C)c1cc(NC(=O)Nc2ccc(NC(=O)c3cc(Cl)nnc3Cl)cc2)no1 [Compound N174] | + + + | + + and + + + | + + + + | –
CC(C)(C)c1cc(NC(=O)Nc2ccc(NC(=O)c3cc(O)c4cccc(O)c4n3)cc2)no1 [Compound N176] | + + + | – | – | IC50 (MV4,11 cells): > 10 µM
COc1ccc(C(=O)c2c[nH]c(C(=O)Nc3ccc(NC(=O)Nc4cc(C(C)(C)C)on4)cc3)c2)cc1 [Compound N177] | + + + | + + | – | –
CC(C)(C)c1cc(NC(=O)Nc2ccc(NC(=O)c3nnsc3Sc3ccc(C(F)(F)F)cc3)cc2)no1 [Compound N179] | + + + | + + + | – | –
CC(C)(C)c1cc(NC(=O)Nc2ccc(NC(=O)c3csc(Cc4cccc(C(F)(F)F)c4)n3)cc2)no1 [Compound N180] | + + + + | + + + | – | –
CC(C)c1nnsc1C(=O)Nc1ccc(NC(=O)Nc2cc(C(C)(C)C)on2)cc1 [Compound N182] | + + + | + + | – | –
CC(C)(C)c1cc(NC(=O)Nc2ccc(NC(=O)c3sccc3CCc3cccc(C(F)(F)F)c3)cc2)no1 [Compound N183] | + + + + | + + | – | –
CC(C)(C)c1cc(NC(=O)Nc2ccc(NC(=O)c3nn(-c4cccc(C(F)(F)F)c4)c(=O)cc3O)cc2)no1 [Compound N185] | + + + | + + | – | –
Cc1nc(N)cc(Nc2ccc(NC(=O)Nc3cc(C(C)(C)C)on3)cc2)n1 [Compound O10] | – | + + + | + + + + | –
COc1ccc(-c2noc(-c3ccc(NC(=O)Nc4cc(C(C)(C)C)on4)cc3)n2)c2ccccc12 [Compound P3] | – | + + + | + + + | –
Cc1cccnc1-c1noc(-c2ccc(NC(=O)Nc3cc(C(C)(C)C)on3)cc2)n1 [Compound P4] | – | + + + + | + + + + | –
CC(C)(C)c1noc(-c2ccc(NC(=S)Nc3cc(C(C)(C)C)on3)cc2)n1 [Compound P6] | – | + + + | + + | –
Cc1noc(-c2ccc(NC(=O)Nc3cc(C(C)(C)C)on3)cc2)n1 [Compound P9] | – | + + + | + + + + | –
CC(C)CCOC(=O)c1nnsc1NC(=O)Nc1ccc(Br)cc1 [Compound Z36] | – | + + | – | Kd (FLT3): > 10 µM
C=C/C(=C\C=C\Cl)NC(=O)Nc1ccc(C(=O)OCCOC)cc1 [Compound Z54] | – | + + | + + | –
CC(=O)c1c(NC(=O)Nc2ccc(Cl)c(Cl)c2)sc2c1CCCC2 [Compound Z56] | – | + + + | – | Kd (FLT3): > 10 µM
Cc1sc(NC(=O)Nc2ccc(Cl)cc2)c(C(N)=O)c1C [Compound Z58] | – | + + | – | Kd (FLT3): > 10 µM
COc1ccc(NC(=O)Nc2cc(C(F)(F)F)cc(Cl)n2)cc1 [Compound Z71] | – | + + + | + + + + | –
